We go through 13 molecules from ChEMBL document CHEMBL4354881, “Optimization of Potent ATAD2 and CECR2 Bromodomain Inhibitors with an Atypical Binding Mode” (J Med Chem, 2020).

For data set [1], the target named is Bromodomain-containing protein 4 (Homo sapiens, UniProt O60885, Y390A). The data set is described as follows: Displacement of Alexa Fluor 647-labeled ligand from BRD4 BD1 Y390A mutant (1 to 477 residue) (unknown origin) measured after 30 mins by TR-FRET assay.
Data set [2] has as its target T1, Chromatin remodeling regulator CECR2 (Homo sapiens, UniProt Q9BXF3). Nature of the data set: Displacement of Alexa Fluor 647-labeled GSK tracer from FLAG-6His-Tev-fused CECR2 (424 to 543 residue) (unknown origin) measured after 15 mins by TR-FRET assay. Background: Time-resolved FRET reads energy transfer from a long-lived donor to a nearby acceptor.
Data set [3] deals with T2, ATPase family AAA domain-containing protein 2 (Homo sapiens, UniProt Q6PL18).
T2 sequence (Q6PL18 whole entry): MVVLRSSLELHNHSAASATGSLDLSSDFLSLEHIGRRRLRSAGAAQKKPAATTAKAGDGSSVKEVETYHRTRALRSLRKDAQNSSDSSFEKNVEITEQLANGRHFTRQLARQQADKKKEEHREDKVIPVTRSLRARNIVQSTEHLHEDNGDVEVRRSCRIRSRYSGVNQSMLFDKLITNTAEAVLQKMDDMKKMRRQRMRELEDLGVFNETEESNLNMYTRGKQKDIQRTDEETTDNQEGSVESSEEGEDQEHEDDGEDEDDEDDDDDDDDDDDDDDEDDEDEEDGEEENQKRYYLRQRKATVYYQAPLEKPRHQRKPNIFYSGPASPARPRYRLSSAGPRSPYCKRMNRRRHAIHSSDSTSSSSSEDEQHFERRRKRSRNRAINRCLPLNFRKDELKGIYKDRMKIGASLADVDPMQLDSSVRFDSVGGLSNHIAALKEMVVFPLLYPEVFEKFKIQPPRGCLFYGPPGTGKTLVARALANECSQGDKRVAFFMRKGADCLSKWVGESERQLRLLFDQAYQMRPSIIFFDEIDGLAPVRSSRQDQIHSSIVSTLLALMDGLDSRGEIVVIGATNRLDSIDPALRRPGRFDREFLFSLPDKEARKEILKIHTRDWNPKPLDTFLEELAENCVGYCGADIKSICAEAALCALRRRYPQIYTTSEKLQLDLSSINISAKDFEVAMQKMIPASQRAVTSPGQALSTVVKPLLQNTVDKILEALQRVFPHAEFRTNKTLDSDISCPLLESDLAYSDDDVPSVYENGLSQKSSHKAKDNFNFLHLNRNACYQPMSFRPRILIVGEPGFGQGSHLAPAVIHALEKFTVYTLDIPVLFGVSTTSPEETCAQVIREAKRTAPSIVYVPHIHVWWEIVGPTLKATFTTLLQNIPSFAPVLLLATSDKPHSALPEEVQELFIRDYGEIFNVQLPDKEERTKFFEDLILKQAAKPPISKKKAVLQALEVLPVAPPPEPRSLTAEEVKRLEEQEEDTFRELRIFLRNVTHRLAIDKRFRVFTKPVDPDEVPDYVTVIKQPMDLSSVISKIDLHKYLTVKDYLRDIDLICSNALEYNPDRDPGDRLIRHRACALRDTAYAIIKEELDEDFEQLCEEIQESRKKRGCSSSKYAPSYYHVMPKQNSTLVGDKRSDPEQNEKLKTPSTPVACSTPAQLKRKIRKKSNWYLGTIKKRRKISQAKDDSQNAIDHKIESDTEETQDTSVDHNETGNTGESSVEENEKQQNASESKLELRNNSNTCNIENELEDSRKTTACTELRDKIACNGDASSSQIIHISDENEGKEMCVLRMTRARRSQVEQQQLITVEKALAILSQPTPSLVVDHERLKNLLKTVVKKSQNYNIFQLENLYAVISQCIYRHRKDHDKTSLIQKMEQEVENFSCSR
The data set is described as follows: Displacement of Alexa Fluor 488-labeled ligand from FLAG-6His-Tev-fused ATAD2 (981 to 1121 residue) (unknown origin) measured after 30 mins by TR-FRET assay.

Data set [4] can be described thus: Permeability of the compound by artificial lipid membrane-based method. Format: ADME. The note with it: not told; read-out: permeability.
A further data set is filed under the species Homo sapiens. The data set is described as follows: Selectivity ratio of IC50 for displacement of Alexa Fluor 488-labeled ligand from FLAG-6His-Tev-fused ATAD2 (981 to 1121 residue) (unknown origin) to IC50 for displacement of Alexa Fluor 647-labeled GSK tracer from FLAG-6His-Tev-fused CECR2 (424 to 543 residue) (unknown origin).
The nature of data set [5]: Lipophilicity, log D of the compound at pH 7.4 by chromatographic method. Conditions: buffer. The format is physicochemical.
A short description of data set [6]: Solubility of the compound by CAD method. The format is physicochemical.
Data set [7] concerns the target T1, Chromatin remodeling regulator CECR2. Nature of the data set: Binding affinity to CECR2 (unknown origin) by ITC analysis. (In ITC the heat of successive injections is recorded.)
Data set [8] shares this target. The data set is described as follows: Inhibition of BSP-BODIPY binding to Nanoluc-tagged CECR2 (unknown origin) expressed in HEK293 cells measured after 4 to 6 hrs by NanoBRET assay. The format is cell-based.
In data set [9] the target is Bromodomain-containing protein 4 (Homo sapiens, UniProt O60885). The data set is described as follows: Displacement of Alexa Fluor 647-labeled ligand from BRD4 BD2 (unknown origin) measured after 30 mins by TR-FRET assay.
Data set [10] deals with Histone acetyltransferase KAT2A (Homo sapiens, UniProt Q92830). The data set is described as follows: Binding affinity to human partial length GCN5L2 (E726 to K837 residues) expressed in bacterial expression system by BROMOscan assay.
Chain of Histone acetyltransferase KAT2A (Q92830 whole entry, the tested form may be a part): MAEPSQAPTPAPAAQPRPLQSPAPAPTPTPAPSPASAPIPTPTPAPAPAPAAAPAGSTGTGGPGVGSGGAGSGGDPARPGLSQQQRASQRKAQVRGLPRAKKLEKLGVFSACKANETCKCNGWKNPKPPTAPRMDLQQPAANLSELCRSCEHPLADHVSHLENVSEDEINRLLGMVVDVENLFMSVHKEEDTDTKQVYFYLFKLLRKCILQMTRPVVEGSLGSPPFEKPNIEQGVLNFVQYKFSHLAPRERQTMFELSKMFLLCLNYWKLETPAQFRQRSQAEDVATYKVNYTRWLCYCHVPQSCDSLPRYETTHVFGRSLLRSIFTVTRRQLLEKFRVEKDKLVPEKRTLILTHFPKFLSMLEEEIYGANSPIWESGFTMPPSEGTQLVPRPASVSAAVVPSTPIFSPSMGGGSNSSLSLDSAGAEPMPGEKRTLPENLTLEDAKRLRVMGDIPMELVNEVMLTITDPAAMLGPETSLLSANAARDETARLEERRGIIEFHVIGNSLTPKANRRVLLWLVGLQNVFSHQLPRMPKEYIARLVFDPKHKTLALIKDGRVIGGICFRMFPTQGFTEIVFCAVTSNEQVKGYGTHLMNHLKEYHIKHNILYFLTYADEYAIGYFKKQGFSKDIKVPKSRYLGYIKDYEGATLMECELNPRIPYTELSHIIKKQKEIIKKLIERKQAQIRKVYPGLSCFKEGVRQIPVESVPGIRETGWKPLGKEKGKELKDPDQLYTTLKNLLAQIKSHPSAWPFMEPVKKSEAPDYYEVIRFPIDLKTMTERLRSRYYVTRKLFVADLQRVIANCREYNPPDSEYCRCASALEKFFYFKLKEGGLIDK
Data set [11] concerns the target T1, Chromatin remodeling regulator CECR2. The data set is described as follows: Binding affinity to human partial length CECR2 (P423 to D543 residues) expressed in bacterial expression system by BROMOscan assay.

Each structure is given as a SMILES string. In brackets after ≈: the same amount, converted by molar mass.

T1 sequence (Q9BXF3 whole entry, the tested form may be a part): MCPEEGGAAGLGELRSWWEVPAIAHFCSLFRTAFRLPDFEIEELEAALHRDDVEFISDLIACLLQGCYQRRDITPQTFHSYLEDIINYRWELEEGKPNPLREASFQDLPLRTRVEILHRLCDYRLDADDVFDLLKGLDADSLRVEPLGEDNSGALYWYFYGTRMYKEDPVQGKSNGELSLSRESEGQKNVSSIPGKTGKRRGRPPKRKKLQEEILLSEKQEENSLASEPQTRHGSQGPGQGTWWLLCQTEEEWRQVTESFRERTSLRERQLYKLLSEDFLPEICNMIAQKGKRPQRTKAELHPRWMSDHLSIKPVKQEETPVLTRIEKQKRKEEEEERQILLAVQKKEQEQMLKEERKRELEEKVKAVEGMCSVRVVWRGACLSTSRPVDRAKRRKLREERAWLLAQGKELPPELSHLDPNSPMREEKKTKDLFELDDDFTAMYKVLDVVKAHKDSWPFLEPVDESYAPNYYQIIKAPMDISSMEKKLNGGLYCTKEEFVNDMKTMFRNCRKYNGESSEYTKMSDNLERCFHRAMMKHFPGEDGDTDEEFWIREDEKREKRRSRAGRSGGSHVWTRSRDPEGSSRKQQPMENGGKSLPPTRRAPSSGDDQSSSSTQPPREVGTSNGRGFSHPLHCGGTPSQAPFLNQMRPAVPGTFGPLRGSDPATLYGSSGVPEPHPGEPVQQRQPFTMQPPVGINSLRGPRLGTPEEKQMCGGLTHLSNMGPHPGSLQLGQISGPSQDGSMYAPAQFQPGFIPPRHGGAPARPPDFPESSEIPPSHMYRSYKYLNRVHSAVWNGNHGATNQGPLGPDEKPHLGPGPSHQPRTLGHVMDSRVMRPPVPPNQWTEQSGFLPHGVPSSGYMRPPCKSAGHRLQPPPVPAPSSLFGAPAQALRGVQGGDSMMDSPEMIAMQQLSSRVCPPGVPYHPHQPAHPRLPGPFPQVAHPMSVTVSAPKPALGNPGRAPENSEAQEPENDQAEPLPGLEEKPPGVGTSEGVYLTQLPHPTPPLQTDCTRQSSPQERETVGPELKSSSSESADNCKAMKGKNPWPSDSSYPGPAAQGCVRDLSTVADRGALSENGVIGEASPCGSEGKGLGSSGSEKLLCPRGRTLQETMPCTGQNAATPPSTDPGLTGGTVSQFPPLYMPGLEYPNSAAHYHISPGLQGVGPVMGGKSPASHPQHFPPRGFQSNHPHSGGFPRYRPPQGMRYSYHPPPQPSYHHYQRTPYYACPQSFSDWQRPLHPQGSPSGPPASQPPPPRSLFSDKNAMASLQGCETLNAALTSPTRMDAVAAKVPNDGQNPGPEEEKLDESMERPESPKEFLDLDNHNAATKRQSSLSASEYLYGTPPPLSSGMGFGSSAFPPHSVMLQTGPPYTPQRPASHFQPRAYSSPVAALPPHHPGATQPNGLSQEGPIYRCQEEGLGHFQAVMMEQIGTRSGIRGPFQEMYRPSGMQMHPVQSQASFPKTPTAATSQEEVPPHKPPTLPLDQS

For orientation: IC50 means the concentration that inhibits the measured activity by half. A high value points to a need for much substance. Take `CN(C)CC1CCN(S(=O)(=O)c2cc(NC(=O)CN3C(=O)CNC3=O)ccc2Cl)C1` (configuration not stated): the IC50 in data set [1] was more than 50.1 µM; in [2], 3.98 µM; in [3], 1000 nM. The Papp in data set [4] is less than 0.3 ×10⁻⁶ cm/s.

One may read the chromatographic logD as lipophilicity estimated from chromatographic retention. A lower chromatographic logD goes with lower lipophilicity. One may read the solubility as the dissolved amount per volume that the medium holds. A lower solubility goes with a poorly soluble substance. Regarding `C[C@H]1CCN(S(=O)(=O)c2cc(NC(=O)Cn3nnc4c3CCN(CC(F)(F)F)C4)ccc2Br)C1`, the half-inhibitory concentration (IC50) in data set [1] was 31.6 µM; in data set [2], 0.158 µM; in [3], 2510 nM. The Ratio IC50 in the data set listed under Homo sapiens was determined as 16. The molecule also came in with a chromatographic logD in [5] of 5.3. In addition, in data set [6], the solubility turned out to be 49 µg/mL (≈ 86.7 µM).

For the molecule `O=C(CN1C(=O)COC1=O)Nc1ccc(Cl)c(S(=O)(=O)N2CCCC2)c1`, the 50% inhibitory concentration (IC50) in data set [1] is more than 50.1 µM; in data set [2], 1.58 µM; in data set [3] it was 1260 nM. In addition, the Papp in data set [4] turned out to be 5.4 ×10⁻⁶ cm/s.

One may read the Kd as the concentration at which binding is half-saturated. A lower Kd goes with a tighter complex. Turning to `CN(C)CCCOc1ccc(-c2cc(NCCCn3cccn3)nc(S(C)(=O)=O)n2)cc1`, the affinity in [7], expressed as Kd, was 10 nM.

`CC1(C)NC(=O)N(CC(=O)Nc2ccc(Cl)c(S(=O)(=O)N3CCCC3)c2)C1=O`: the half-maximal inhibitory concentration (IC50) is more than 50.1 µM in data set [1], 5.01 µM in data set [2] and 1580 nM in data set [3]. For the same molecule, in data set [4], the Papp turned out to be 1.8 ×10⁻⁶ cm/s.

For `CN1CCc2c(nnn2CC(=O)Nc2ccc(Br)c(S(=O)(=O)N3CC[C@H](C4CC4)C3)c2)C1`, the IC50 in data set [1] is 12.6 µM; in [8], 39.8 nM; in data set [9], 5.01 µM; in data set [3], 2000 nM. In addition, the Papp in [4] turned out to be 14 ×10⁻⁶ cm/s. Moreover, the figures for the Kd in [10] and in [11] were 158 nM and 10 nM, respectively.

Turning to `O=C(CN1C(=O)CCC1=O)Nc1ccc(Cl)c(S(=O)(=O)N2CCCC2)c1`, the IC50 in [1] is more than 50.1 µM; in data set [2] it was 3.98 µM; in data set [3] it was 1260 nM. Also, the Papp in data set [4] was found to be 4.2 ×10⁻⁶ cm/s.

On to `CC1(C2CC2)NC(=O)N(CC(=O)Nc2ccc(Cl)c(S(=O)(=O)N3CCCC3)c2)C1=O` (racemic), for which the half-maximal inhibitory concentration (IC50) in data set [1] is more than 501 µM; in [2], 1.58 µM; in [3] it was 1000 nM. For the same molecule, the Papp in data set [4] is 10 ×10⁻⁶ cm/s.

For the molecule `O=C(CN1CCCC1=O)Nc1ccc(Cl)c(S(=O)(=O)N2CCCC2)c1`, the IC50 in data set [1] is more than 50.1 µM; in data set [2], 20 µM; in data set [3], 50100 nM. The Papp in data set [4] came out at 12 ×10⁻⁶ cm/s.

As for `CN1CCc2c(nnn2CC(=O)Nc2ccc(Cl)c(S(=O)(=O)N3CC[C@H](C4CC4)C3)c2)C1`, the half-inhibitory concentration (IC50) was 25.1 µM in data set [1]; 50.1 nM in data set [8]; 10 µM in [9]; 0.02 µM in data set [2]; 3160 nM in [3]. The Papp in [4] was determined as 11.1 ×10⁻⁶ cm/s. Moreover, the Kd in data set [10] is 501 nM; in [11], 7.94 nM.

As to `CN(C)S(=O)(=O)c1cc(NC(=O)CN2C(=O)CNC2=O)ccc1Cl`, the IC50 was 39.8 µM in data set [1], 79.4 µM in data set [2] and 12600 nM in data set [3].

Take `CC1NC(=O)N(CC(=O)Nc2ccc(Cl)c(S(=O)(=O)N3CCCC3)c2)C1=O` (racemic): the IC50 is more than 50.1 µM in [1], 6.31 µM in data set [2] and 1260 nM in [3]. For the same molecule, the Papp in data set [4] worked out at 1.2 ×10⁻⁶ cm/s.

With `CC(=O)Nc1ccc(Cl)c(S(=O)(=O)N2CCCC2)c1`, the half-inhibitory concentration (IC50) was 200 µM in data set [1], 79.4 µM in data set [2] and 31600 nM in data set [3]. Further, the Papp in data set [4] stood at 27 ×10⁻⁶ cm/s.
